For one test, the target named is T1, GLP-1 receptors (Homo sapiens, UniProt P43220).
T1 construct: expressed in transfected cells; host or cells: CHO (CHO/GLP-1R)
Kind of test: In-vitro activity: cAMP increase in CHO/GLP-1R cells. The test is classed as cell-based. The conditions noted are these: CHO/GLP-1R cell line; cAMP measured at varying concentrations, EC50 values compared; control Byetta = 100. As to the method: To measure the efficacy of long acting preparation of exendin-4 by pegylation and pegylation site, a method for measuring the in-vitro activity was used. The measurement of in-vitro activity of GLP-1 is a method for measuring whether cAMP's in the cell was increased after treatment of GLP-1 to CHO cell lines to which GLP-1 receptors was cloned. Specifically, CHO/GLP-1R, a cell line in which […], was treated with GLP-1, exendin-4 and test materials described in Table 1 at varying concentrations.

Test [1] deals with GLP-1 receptor (CHO/GLP-1R cell line). Kind of test: cell-based or functional assay.

This is an account of results in patent US8895281B2, “Method for preparing a site-specific physiologically active polypeptide conjugate” (Hanmi Science Co., Ltd, priority 2009, dated 2014).

Chain of Byetta (Eli Lilly) (P26349 48-86): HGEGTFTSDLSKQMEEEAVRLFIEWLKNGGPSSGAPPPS
T1 sequence (P43220 24-463): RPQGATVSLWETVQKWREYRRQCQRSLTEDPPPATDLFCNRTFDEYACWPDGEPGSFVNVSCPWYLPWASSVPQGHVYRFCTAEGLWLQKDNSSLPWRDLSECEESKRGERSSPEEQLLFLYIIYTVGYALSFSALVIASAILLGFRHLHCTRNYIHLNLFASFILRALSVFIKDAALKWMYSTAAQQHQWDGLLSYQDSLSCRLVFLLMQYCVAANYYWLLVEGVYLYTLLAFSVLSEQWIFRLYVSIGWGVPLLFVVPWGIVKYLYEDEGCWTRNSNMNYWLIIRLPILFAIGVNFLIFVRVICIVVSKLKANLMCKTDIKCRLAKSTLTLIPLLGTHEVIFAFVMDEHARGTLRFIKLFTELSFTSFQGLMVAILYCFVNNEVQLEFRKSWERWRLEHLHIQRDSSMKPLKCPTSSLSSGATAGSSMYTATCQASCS

imidazo-acetyl-exendin-4 [CA-exendin-4]: the “In-vitro activity (%)” value at GLP-1 receptors came to 77%. The substance “Byetta (Eli Lilly) (from UniProt P26349 48-86) (peptide)” had an In-vitro activity (%) (cAMP in CHO/GLP-1R cells, EC50 values compared) in test [1] of 100%.
